Assay: Clinical study on safety in patients with HER2+ MBC
Format: in vivo, human
Source text: […] All patients had prior anti-HER2 antibody and chemotherapy treatment. Majority of patients ([…]) also had prior anti-HER2 small molecule treatment.

[1] = 100 mg (N = 4), CTCAE Grade All
[2] = 200 mg (N = 5), CTCAE Grade All
[3] = HER2+ MBC patients, oral twice daily, doses tested
[4] = Total (N = 14), CTCAE Grade All

## COc1cc(O[C@H]2CCN(C)CC2(F)F)c2c(Nc3ccc(Oc4ccn5ncnc5c4)c(C)c3)ncnc2c1 (single isomer, unassigned) [Compound 6]
25 mg (N = 1), CTCAE Grade All
  TEAE Anaemia, patients: 0
  TEAE Aspartate aminotransferase increased, patients: 0
  TEAE Bilirubin conjugated increased, patients: 0
  TEAE Blood bilirubin increased, patients: 1
  TEAE Blood bilirubin unconjugated increased, patients: 1
  TEAE Blood creatinine increased, patients: 0
  TEAE Fatigue, patients: 0
  TEAE Haemoglobin decreased, patients: 0
  TEAE Headache, patients: 0
  TEAE Lipase increased, patients: 0
  TEAE Pain, patients: 0
  TEAE Platelet count decreased, patients: 0
  TEAE Proteinuria, patients: 0
  TEAE Vomiting, patients: 0
25 mg (N = 1), CTCAE Grade ≥3
  TEAE Anaemia, patients: 0
  TEAE Aspartate aminotransferase increased, patients: 0
  TEAE Bilirubin conjugated increased, patients: 0
  TEAE Blood bilirubin increased, patients: 0
  TEAE Blood bilirubin unconjugated increased, patients: 0
  TEAE Blood creatinine increased, patients: 0
  TEAE Fatigue, patients: 0
  TEAE Haemoglobin decreased, patients: 0
  TEAE Headache, patients: 0
  TEAE Lipase increased, patients: 0
  TEAE Pain, patients: 0
  TEAE Platelet count decreased, patients: 0
  TEAE Proteinuria, patients: 0
  TEAE Vomiting, patients: 0
50 mg (N = 4), CTCAE Grade All
  TEAE Anaemia, patients: 1
  TEAE Aspartate aminotransferase increased, patients: 1
  TEAE Bilirubin conjugated increased, patients: 0
  TEAE Blood bilirubin increased, patients: 0
  TEAE Blood bilirubin unconjugated increased, patients: 0
  TEAE Blood creatinine increased, patients: 1
  TEAE Fatigue, patients: 0
  TEAE Haemoglobin decreased, patients: 1
  TEAE Headache, patients: 1
  TEAE Lipase increased, patients: 2
  TEAE Pain, patients: 1
  TEAE Platelet count decreased, patients: 1
  TEAE Proteinuria, patients: 1
  TEAE Vomiting, patients: 0
50 mg (N = 4), CTCAE Grade ≥3
  TEAE Anaemia, patients: 0
  TEAE Aspartate aminotransferase increased, patients: 0
  TEAE Bilirubin conjugated increased, patients: 0
  TEAE Blood bilirubin increased, patients: 0
  TEAE Blood bilirubin unconjugated increased, patients: 0
  TEAE Blood creatinine increased, patients: 0
  TEAE Fatigue, patients: 0
  TEAE Haemoglobin decreased, patients: 0
  TEAE Headache, patients: 0
  TEAE Lipase increased, patients: 0
  TEAE Pain, patients: 0
  TEAE Platelet count decreased, patients: 0
  TEAE Proteinuria, patients: 0
  TEAE Vomiting, patients: 0
[1]
  TEAE Anaemia, patients: 2
  TEAE Aspartate aminotransferase increased, patients: 0
  TEAE Bilirubin conjugated increased, patients: 0
  TEAE Blood bilirubin increased, patients: 0
  TEAE Blood bilirubin unconjugated increased, patients: 0
  TEAE Blood creatinine increased, patients: 0
  TEAE Fatigue, patients: 1
  TEAE Haemoglobin decreased, patients: 0
  TEAE Headache, patients: 2
  TEAE Lipase increased, patients: 0
  TEAE Pain, patients: 0
  TEAE Platelet count decreased, patients: 1
  TEAE Proteinuria, patients: 0
  TEAE Vomiting, patients: 1
100 mg (N = 4), CTCAE Grade ≥3
  TEAE Anaemia, patients: 0
  TEAE Aspartate aminotransferase increased, patients: 0
  TEAE Bilirubin conjugated increased, patients: 0
  TEAE Blood bilirubin increased, patients: 0
  TEAE Blood bilirubin unconjugated increased, patients: 0
  TEAE Blood creatinine increased, patients: 0
  TEAE Fatigue, patients: 0
  TEAE Haemoglobin decreased, patients: 0
  TEAE Headache, patients: 0
  TEAE Lipase increased, patients: 0
  TEAE Pain, patients: 0
  TEAE Platelet count decreased, patients: 0
  TEAE Proteinuria, patients: 0
  TEAE Vomiting, patients: 0
[2]
  TEAE Anaemia, patients: 1
  TEAE Aspartate aminotransferase increased, patients: 1
  TEAE Bilirubin conjugated increased, patients: 2
  TEAE Blood bilirubin increased, patients: 2
  TEAE Blood bilirubin unconjugated increased, patients: 1
  TEAE Blood creatinine increased, patients: 1
  TEAE Fatigue, patients: 1
  TEAE Haemoglobin decreased, patients: 3
  TEAE Headache, patients: 1
  TEAE Lipase increased, patients: 1
  TEAE Pain, patients: 1
  TEAE Platelet count decreased, patients: 1
  TEAE Proteinuria, patients: 2
  TEAE Vomiting, patients: 2
200 mg (N = 5), CTCAE Grade ≥3
  TEAE Anaemia, patients: 0
  TEAE Aspartate aminotransferase increased, patients: 0
  TEAE Bilirubin conjugated increased, patients: 1
  TEAE Blood bilirubin increased, patients: 0
  TEAE Blood bilirubin unconjugated increased, patients: 0
  TEAE Blood creatinine increased, patients: 0
  TEAE Fatigue, patients: 0
  TEAE Haemoglobin decreased, patients: 0
  TEAE Headache, patients: 0
  TEAE Lipase increased, patients: 0
  TEAE Pain, patients: 0
  TEAE Platelet count decreased, patients: 0
  TEAE Proteinuria, patients: 0
  TEAE Vomiting, patients: 0
[3]
  dose limiting toxicities: no dose limiting toxicities observed
  tolerability: well tolerated
[4]
  TEAE Anaemia, patients: 4
  TEAE Aspartate aminotransferase increased, patients: 2
  TEAE Bilirubin conjugated increased, patients: 2
  TEAE Blood bilirubin increased, patients: 3
  TEAE Blood bilirubin unconjugated increased, patients: 2
  TEAE Blood creatinine increased, patients: 2
  TEAE Fatigue, patients: 2
  TEAE Haemoglobin decreased, patients: 4
  TEAE Headache, patients: 4
  TEAE Lipase increased, patients: 3
  TEAE Pain, patients: 2
  TEAE Platelet count decreased, patients: 3
  TEAE Proteinuria, patients: 3
  TEAE Vomiting, patients: 3
Total (N = 14), CTCAE Grade ≥3
  TEAE Anaemia, patients: 0
  TEAE Aspartate aminotransferase increased, patients: 0
  TEAE Bilirubin conjugated increased, patients: 1
  TEAE Blood bilirubin increased, patients: 0
  TEAE Blood bilirubin unconjugated increased, patients: 0
  TEAE Blood creatinine increased, patients: 0
  TEAE Fatigue, patients: 0
  TEAE Haemoglobin decreased, patients: 0
  TEAE Headache, patients: 0
  TEAE Lipase increased, patients: 0
  TEAE Pain, patients: 0
  TEAE Platelet count decreased, patients: 0
  TEAE Proteinuria, patients: 0
  TEAE Vomiting, patients: 0
